Molecules are shown by their SMILES. pIC50: −log10 of the molar value.

The assay addresses T1, PAN domain endonuclease (Influenza A virus, UniProt C3W5S0).
T1 construct: The PAN domain of 2009 pandemic H1N1 virus polymerase (residues 1-204) has now been crystallized
As to the kind of experiment: Endonuclease inhibition assay (FRET, FAM/MGBNFQ TaqMan-like probe cleavage by PAN). It is filed as biochemical, influenza A (2009 pandemic H1N1 virus). As to conditions: 25 nM endonuclease, 50 nM probe, 37 degrees Celsius, fluorescence ex 488 nm / em 518 nm. The source says:
A TaqMan-like oligonucleotide was used containing a 6-carboxy-fluorescein (FAM) fluorophore at the 5′-end followed by 19 nucleotides and a minor groove binding non-fluorescent quencher (MGBNFQ, Applied Biosystems) at the 3′-end. When excited by light at a wavelength of 488 nm, MGBNFQ quenches the fluorescence of FAM via fluorescence resonance energy transfer. If the endonuclease cleaves the oligonucleotide, the quencher is no longer coupled to the fluorophore, and therefore, FAM fluoresces. This assay can be performed in a high-throughput (e.g. 96 well plate) format. The assay can be used to evaluate the inhibitory characteristics of compounds that are found to bind PAN and to screen libraries of drug-like compounds. The assay uses the probe 6FAM-[…]-MGBNFQ (SEQ ID NO: 1)
The assay can be performed in a 40 μl reaction volume with 50 mM Tris pH 7.5, 50 mM NaCl, 1 mM MgSO4, 0.5 mM MnSO4, 1 mM DTT, 0.75 mM CHAPS, 50 nM probe, and 25 nM endonuclease.
The reaction mixture is set up as a master mix with the buffer, probe, and protein on ice. The inhibitor is then added to a maximum DMSO concentration of 2.5% (v/v) and serial dilutions are made on ice. Varioskan Fluorometer (Thermo Scientific), set to an excitation of 488 nm and emission of 518 nm, is used to measure the fluorescence of the samples at 37 degrees Celsius. Fluorescence is measured at various time points (5, 120, and 240 minutes) during the 37 degrees Celsius incubation. Activity/inhibition is calculated based on the change in fluorescence over time using Prism Graphpad non-linear regression analysis.
(Real-time PCR tracks product formation cycle by cycle.)
Regarding `Oc1cc(-c2ccc(F)cc2)c(-c2ccc(F)cc2)cc1O` [Example 1], the pIC50 (as a rule, the IC50 on a negative log10 scale, so that one unit is a factor of ten) was 6.41. Consider `O=[N+]([O-])c1c(O)c(O)cc(-c2ccc(F)cc2)c1-c1ccc(F)cc1` [Example 2], for which the pIC50 is 6.36.

`N#Cc1ccc(-c2cc(O)c(O)cc2-c2ccc(C#N)cc2)cc1` [Example 3, 4′,5′-dihydroxy-[1,1′:2′,1″-terphenyl]-4,4″-dicarbonitrile] showed a pIC50 of 6.40. In the case of `N#Cc1ccc(-c2cc(O)c(O)c([N+](=O)[O-])c2-c2ccc(C#N)cc2)cc1` [Example 4] it was 6.71; in that of `N#Cc1ccc(-c2cc(O)c(O)cc2-c2ccc(F)cc2)cc1` [Example 5, 4″-fluoro-4′,5′-dihydroxy-[1,1′:2′,1″-terphenyl]-4-carbonitrile], 6.54; in that of `Oc1cc(-c2ccc(F)cc2)c(-c2ccc(-c3nnn[nH]3)cc2)cc1O` [Example 6], 6.37.

As to `Oc1cc(-c2ccc(-c3nnn[nH]3)cc2)c(-c2ccc(-c3nnn[nH]3)cc2)cc1O` [Example 7], the pIC50 is 6.07.

(Values after patent US9695135B2, “Therapeutic catechols” (priority 2014, dated 2017).)
